Reference: PubChem BioAssay (NCI)
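Each compound was tested at five concentrations against cells in 96-well plates for 48 hours. GI50 is the concentration that inhibits growth by half. TGI denotes the concentration required for complete inhibition of growth.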

Tests used:
Test in all cases: NCI-60 cell line screen, 48 h
SF-268 CNS = test system: SF-268 CNS
TK-10 renal = test system: TK-10 renal
MDA-MB-435 = test system: MDA-MB-435
HCT-15 colon = test system: HCT-15 colon
MALME-3M melanoma = test system: MALME-3M melanoma
IGROV1 ovarian = test system: IGROV1 ovarian
OVCAR-4 ovarian = test system: OVCAR-4 ovarian
DU-145 prostate = test system: DU-145 prostate
ACHN renal = test system: ACHN renal
T-47D breast = test system: T-47D breast
UO-31 renal = test system: UO-31 renal
EKVX NSCLC = test system: EKVX NSCLC
UACC-62 melanoma = test system: UACC-62 melanoma
M14 melanoma = test system: M14 melanoma
OVCAR-3 ovarian = test system: OVCAR-3 ovarian
SK-MEL-2 melanoma = test system: SK-MEL-2 melanoma
NCI-H23 lung = test system: NCI-H23 lung
HS 578T breast = test system: HS 578T breast
NCI/ADR-RES ovarian = test system: NCI/ADR-RES ovarian
UACC-257 melanoma = test system: UACC-257 melanoma
SF-539 CNS = test system: SF-539 CNS
A549 NSCLC = test system: A549 NSCLC
KM12 colon = test system: KM12 colon
SNB-75 CNS = test system: SNB-75 CNS
SN12C renal = test system: SN12C renal
SNB-19 CNS = test system: SNB-19 CNS
U251 CNS = test system: U251 CNS
OVCAR-5 ovarian = test system: OVCAR-5 ovarian
A498 renal = test system: A498 renal
NCI-H460 lung = test system: NCI-H460 lung
RXF 393 renal = test system: RXF 393 renal
SF-295 CNS = test system: SF-295 CNS
786-0 renal = test system: 786-0 renal
CAKI-1 renal = test system: CAKI-1 renal
MDA-MB-231 breast = test system: MDA-MB-231 breast
SK-MEL-28 melanoma = test system: SK-MEL-28 melanoma
RPMI-8226 leukemia = test system: RPMI-8226 leukemia
SK-OV-3 ovarian = test system: SK-OV-3 ovarian
BT-549 breast = test system: BT-549 breast
SW-620 colon = test system: SW-620 colon
PC-3 prostate = test system: PC-3 prostate
HCC-2998 colon = test system: HCC-2998 colon
SK-MEL-5 melanoma = test system: SK-MEL-5 melanoma
NCI-H226 lung = test system: NCI-H226 lung
COLO 205 colon = test system: COLO 205 colon
HOP-62 NSCLC = test system: HOP-62 NSCLC
OVCAR-8 ovarian = test system: OVCAR-8 ovarian
NCI-H522 lung = test system: NCI-H522 lung
MOLT-4 leukemia = test system: MOLT-4 leukemia
HT29 colon = test system: HT29 colon
CCRF-CEM leukemia = test system: CCRF-CEM leukemia
HOP-92 NSCLC = test system: HOP-92 NSCLC

## CC(C)C(=O)c1c(C(F)(F)F)n([O-])c2cc(F)c(F)cc2[n+]1=O
SF-268 CNS
  GI50: 400 nM
  TGI: 1050 nM
TK-10 renal
  GI50: 976 nM
  TGI: 2670 nM
MDA-MB-435
  GI50: 724 nM
  TGI: 2150 nM
HCT-15 colon
  GI50: 147 nM
  TGI: 309 nM
MALME-3M melanoma
  GI50: 693 nM
  TGI: 2210 nM
IGROV1 ovarian
  GI50: 161 nM
  TGI: 53700 nM
OVCAR-4 ovarian
  GI50: 842 nM
  TGI: 2890 nM
DU-145 prostate
  GI50: 592 nM
  TGI: 1720 nM
ACHN renal
  GI50: 155 nM
  TGI: 324 nM
T-47D breast
  GI50: 1260 nM
  TGI: 3960 nM
UO-31 renal
  GI50: 568 nM
  TGI: 1750 nM
EKVX NSCLC
  GI50: 1530 nM
  TGI: 3400 nM
UACC-62 melanoma
  GI50: 666 nM
  TGI: 1920 nM
M14 melanoma
  GI50: 70.8 nM
  TGI: 387 nM
OVCAR-3 ovarian
  GI50: 667 nM
  TGI: 2010 nM
SK-MEL-2 melanoma
  GI50: 234 nM
  TGI: 27800 nM
NCI-H23 lung
  GI50: 263 nM
  TGI: 1160 nM
HS 578T breast
  GI50: 598 nM
  TGI: 2640 nM
NCI/ADR-RES ovarian
  GI50: 200 nM
  TGI: 545 nM
UACC-257 melanoma
  GI50: 2280 nM
  TGI: 6380 nM
SF-539 CNS
  GI50: 381 nM
  TGI: 1000 nM
A549 NSCLC
  GI50: 1380 nM
  TGI: 4140 nM
KM12 colon
  GI50: 1830 nM
  TGI: 4690 nM
SNB-75 CNS
  GI50: 1080 nM
  TGI: 2750 nM
SN12C renal
  GI50: 288 nM
  TGI: 767 nM
SNB-19 CNS
  GI50: 1340 nM
  TGI: 3080 nM
U251 CNS
  GI50: 200 nM
  TGI: 430 nM
OVCAR-5 ovarian
  GI50: 1240 nM
  TGI: 2580 nM
A498 renal
  GI50: 130 nM
  TGI: 1330 nM
NCI-H460 lung
  GI50: 811 nM
  TGI: 2810 nM
RXF 393 renal
  GI50: 456 nM
  TGI: 1190 nM
SF-295 CNS
  GI50: 1190 nM
  TGI: 2560 nM
786-0 renal
  GI50: 444 nM
  TGI: 970 nM
CAKI-1 renal
  GI50: 62.6 nM
  TGI: 500 nM
MDA-MB-231 breast
  GI50: 176 nM
  TGI: 770 nM
SK-MEL-28 melanoma
  GI50: 550 nM
  TGI: 3150 nM
RPMI-8226 leukemia
  GI50: 66.6 nM
  TGI: 12300 nM
SK-OV-3 ovarian
  GI50: 1040 nM
  TGI: 2850 nM
BT-549 breast
  GI50: 587 nM
  TGI: 1900 nM
SW-620 colon
  GI50: 130 nM
  TGI: 277 nM
PC-3 prostate
  GI50: 521 nM
  TGI: 1130 nM
HCC-2998 colon
  GI50: 326 nM
  TGI: 1370 nM
SK-MEL-5 melanoma
  GI50: 197 nM
  TGI: 609 nM
NCI-H226 lung
  GI50: 1260 nM
  TGI: 2540 nM
COLO 205 colon
  GI50: 427 nM
  TGI: 1660 nM
HOP-62 NSCLC
  GI50: 98.5 nM
  TGI: 602 nM
OVCAR-8 ovarian
  GI50: 262 nM
  TGI: 850 nM
NCI-H522 lung
  GI50: 1960 nM
  TGI: 6220 nM
MOLT-4 leukemia
  GI50: 93.3 nM
HT29 colon
  GI50: 168 nM
  TGI: 547 nM
CCRF-CEM leukemia
  GI50: 21.8 nM
  TGI: > 100000 nM
HOP-92 NSCLC
  GI50: 191 nM
  TGI: 972 nM
